Source: patent US9540323B2 (BRISTOL-MYERS SQUIBB COMPANY, priority 2012, dated 2017)

Assays:
[1] = system: human platelet rich plasma (PRP); assay: ADP induced platelet aggregation assay; details: Homo sapiens, Platelet, 5 min, read-out: PA IC50 (μM) @ 10 μM ADP, human PRP, 10 μM ADP, AUC at 5 minute
[2] = target: cloned human P2Y1 receptors (Homo sapiens (Human), UniProt P47900); assay: Binding Assay B - Scintillation Proximity Assay (SPA) for P2Y1 binding, [33P] 2MeS-ADP; details: SPA, 0.3 nM [33P] 2MeS-ADP, Cheng-Prusoff; read-out: P2Y1 Ki (nM) using binding assay B
Chain of cloned human P2Y1 receptors (P47900 whole entry): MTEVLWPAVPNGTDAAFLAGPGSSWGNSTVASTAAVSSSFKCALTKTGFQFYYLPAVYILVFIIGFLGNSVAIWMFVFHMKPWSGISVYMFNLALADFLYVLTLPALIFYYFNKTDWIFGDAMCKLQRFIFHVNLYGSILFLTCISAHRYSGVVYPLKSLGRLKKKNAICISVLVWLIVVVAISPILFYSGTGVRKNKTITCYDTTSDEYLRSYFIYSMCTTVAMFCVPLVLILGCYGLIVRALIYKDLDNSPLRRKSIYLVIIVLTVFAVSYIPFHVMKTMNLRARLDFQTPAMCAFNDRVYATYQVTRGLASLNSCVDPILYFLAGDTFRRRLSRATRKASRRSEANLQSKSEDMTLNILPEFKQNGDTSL
Description: Binding Assay B—Scintillation Proximity Assay (SPA) for P2Y1 Binding
A SPA membrane binding assay was used to identify inhibitors of [^33P] […] Reactions were allowed to proceed to completion at room temperature for 1 hour followed by centrifugation of the plate for 5 min. About 40 μL of the aqueous solution was aspirated. Plates were sealed and the [^33P]

Structure (SMILES) | IC50 [1] | Ki [2]
CC1(C)CN(c2ccccc2NC(=O)Nc2nc3ccc(F)cc3s2)c2c(O)cc(F)c(-c3ccc(C(F)(F)F)nc3)c21 [Example 158, 1-(2-(5-Fluoro-7-hydroxy-3,3-dimethyl-4-(6-(trifluoromethyl)pyridin-3-yl)indolin-1-yl)phenyl)-3-(6-fluorobenzo[d]thiazol-2-yl)urea] | 0.2 µM | 5.7 nM
CC1(C)CN(c2ccccc2NC(=O)Nc2nc3ccc(Cl)cc3s2)c2c(O)cc(F)c(-c3nc4cc(F)ccc4s3)c21 [Example 154, 1-(6-Chlorobenzo[d]thiazol-2-yl)-3-(2-(5-fluoro-4-(5-fluorobenzo[d]thiazol-2-yl)-7-hydroxy-3,3-dimethylindolin-1-yl)phenyl)urea] | 0.35 µM | 22.5 nM
CC1(C)CN(c2ccccc2NC(=O)Nc2nc3ccc(Cl)nc3s2)c2c(O)cc(F)c(-c3ccc(Cl)cc3)c21 [Example 226, 1-(2-(4-(4-Chlorophenyl)-5-fluoro-7-hydroxy-3,3-dimethylindolin-1-yl)phenyl)-3-(5-chlorothiazolo[5,4-b]pyridin-2-yl)urea] | 0.46 µM | 26.6 nM
CCN1CCc2nc(NC(=O)Nc3ccccc3N3CC(C)(C)c4c(C(F)(F)F)ccc(O)c43)sc2C1 [Example 20, 1-(5-Ethyl-4,5,6,7-tetrahydrothiazolo[5,4-c]pyridin-2-yl)-3-(2-(7-hydroxy-3,3-dimethyl-4-(trifluoromethyl)indolin-1-yl)phenyl)urea] | 0.95 µM | 18.6 nM
CC1(C)CN(c2ccccc2NC(=O)Nc2nc3ccc(Cl)cc3s2)c2c(O)ccc(-c3nc4ccc(F)cc4s3)c21 [Example 128, 1-(6-Chlorobenzo[d]thiazol-2-yl)-3-(2-(4-(6-fluorobenzo[d]thiazol-2-yl)-7-hydroxy-3,3-dimethylindolin-1-yl)phenyl)urea] | 0.24 µM | 108 nM
CC1(C)CN(c2ccccc2NC(=O)Nc2nc3ccc(F)cc3s2)c2c(O)cc(F)c(-c3ccc(Cl)cc3)c21 [Example 224, 1-(2-(4-(4-Chlorophenyl)-5-fluoro-7-hydroxy-3,3-dimethylindolin-1-yl)phenyl)-3-(6-fluorobenzo[d]thiazol-2-yl)urea] | 0.34 µM | 26.1 nM
CC1(C)CN(c2ccccc2NC(=O)Nc2ccc(OC(F)(F)F)cc2)c2c(O)cc(F)c(C3CC3)c21 [Example 252, 1-(2-(4-Cyclopropyl-5-fluoro-7-hydroxy-3,3-dimethylindolin-1-yl)phenyl)-3-(4-(trifluoromethoxy)phenyl)urea] | 0.42 µM | 18.3 nM
CC1(C)CN(c2ccccc2NC(=O)Nc2ccc(OC(F)(F)F)cc2)c2c(O)ccc(-c3ccc(Cl)s3)c21 [Example 121, 1-(2-(4-(5-Chlorothiophen-2-yl)-7-hydroxy-3,3-dimethylindolin-1-yl)phenyl)-3-(4-(trifluoromethoxy)phenyl)urea] | 0.2 µM | 113 nM
CCOC(=O)c1ccc(O)c2c1C(C)(C)CN2c1ccccc1NC(=O)Nc1ccc(OC(F)(F)F)cc1 [Example 81, Ethyl 7-hydroxy-3,3-dimethyl-1-(2-(3-(4-(trifluoromethoxy)-phenyl)-ureido)phenyl)indoline-4-carboxylate] | 0.91 µM | 8.6 nM
CC1(C)CN(c2ccccc2NC(=O)Nc2csc(Cl)n2)c2c(O)cc(F)c(-c3cc(C(F)(F)F)no3)c21 [Example 269, 1-(2-Chlorothiazol-4-yl)-3-(2-(5-fluoro-7-hydroxy-3,3-dimethyl 4-(3-(trifluoromethyl)isoxazol-5-yl)indolin-1-yl)phenyl)urea] | 0.39 µM | 1.2 nM
CC1(C)CN(c2ccccc2NC(=O)Nc2ccc(OC(F)(F)F)cc2)c2c(O)c(F)cc(-c3ccc(C(F)(F)F)cc3)c21 [Example 229, 1-(2-(6-Fluoro-7-hydroxy-3,3-dimethyl-4-(4-(trifluoromethyl)phenyl)indolin-1-yl)phenyl)-3-(4-(trifluoromethoxy)phenyl)urea] | 0.22 µM | 15.3 nM
